Measurements reported in ChEMBL document CHEMBL4152225, “Dual-tail arylsulfone-based benzenesulfonamides differently match the hydrophobic and hydrophilic halves of human carbonic anhydrases active sites: Selective inhibitors for the tumor-associated hCA IX isoform” (Eur J Med Chem, 2018).

Assays:
Carbonic anhydrase 9 = Carbonic anhydrase 9 (Homo sapiens, UniProt Q16790); assay: Inhibition of recombinant human carbonic anhydrase 9 assessed as inhibition of CO2 hydration preincubated for 15 mins prior to testing by phenol red based stopped-flow assay
MDA-MB-231 = assay: Cytotoxicity against human MDA-MB-231 cells under hypoxic condition by MTT assay
MCF7 = assay: Cytotoxicity against human MCF7 cells under hypoxic condition by MTT assay

Structure (SMILES)	Ki (Carbonic anhydrase 9) [nM]	IC50 (MDA-MB-231) [nM]	IC50 (MCF7) [nM]
Cc1ccc(S(=O)(=O)C/C(=N\Nc2ccc(S(N)(=O)=O)cc2)c2ccsc2)cc1	56.3	–	–
NS(=O)(=O)c1ccc(N/N=C(\CS(=O)(=O)c2ccccc2)c2ccc(Cl)cc2)cc1	34.8	–	–
Cc1ccc(S(=O)(=O)C/C(=N\Nc2ccc(S(N)(=O)=O)cc2)c2ccc(Br)cc2)cc1	56.1	–	–
Cc1ccc(S(=O)(=O)C/C(=N\Nc2ccc(S(N)(=O)=O)cc2)c2ccc([N+](=O)[O-])cc2)cc1	79.2	–	–
NS(=O)(=O)c1ccc(N/N=C(\CS(=O)(=O)c2ccccc2)c2cc3ccccc3o2)cc1	69.1	–	–
NS(=O)(=O)c1ccc(N/N=C(\CS(=O)(=O)c2ccccc2)c2ccc(F)cc2)cc1	7.5	–	–
NS(=O)(=O)c1ccc(N/N=C(\CS(=O)(=O)c2ccccc2)c2ccc(-c3ccccc3)cc2)cc1	132	–	–
NS(=O)(=O)c1ccc(N/N=C(\CS(=O)(=O)c2ccccc2)c2ccc(Br)cc2)cc1	61.2	–	–
NS(=O)(=O)c1ccc(N/N=C(\CS(=O)(=O)c2ccccc2)c2ccco2)cc1	79.3	–	–
NS(=O)(=O)c1ccc(N/N=C(\CS(=O)(=O)c2ccccc2)c2ccc([N+](=O)[O-])cc2)cc1	71.6	–	–
COc1cccc2c1C(=O)c1c(O)c3c(c(O)c1C2=O)C[C@@](O)(C(=O)CO)C[C@@H]3O[C@H]1C[C@H](N)[C@H](O)[C@H](C)O1 [DOXORUBICIN]	–	–	370

Continued, in another order:

Ki (Carbonic anhydrase 9) [nM]	Structure (SMILES)	IC50 (MDA-MB-231) [nM]	IC50 (MCF7) [nM]
39.5	Cc1ccc(S(=O)(=O)C/C(=N\Nc2ccc(S(N)(=O)=O)cc2)c2ccccc2)cc1	–	–
39.3	NS(=O)(=O)c1ccc(N/N=C(\CS(=O)(=O)c2ccccc2)c2ccc3ccccc3c2)cc1	–	–
27.6	Cc1ccc(S(=O)(=O)C/C(=N\Nc2ccc(S(N)(=O)=O)cc2)c2ccc(F)cc2)cc1	–	–
15.3	Cc1ccc(S(=O)(=O)C/C(=N\Nc2ccc(S(N)(=O)=O)cc2)c2ccc3ccccc3c2)cc1	–	–
36.5	Cc1ccc(/C(CS(=O)(=O)c2ccccc2)=N/Nc2ccc(S(N)(=O)=O)cc2)cc1	–	–
5.3	Cc1ccc(/C(CS(=O)(=O)c2ccc(C)cc2)=N/Nc2ccc(S(N)(=O)=O)cc2)cc1	5140	2330
8.7	Cc1ccc(S(=O)(=O)C/C(=N\Nc2ccc(S(N)(=O)=O)cc2)c2ccc(Cl)cc2)cc1	18200	3900
